Format in all cases: in vivo, mouse
The subject of experiment [1] is diabetic and obese mice fed with 60% fat. Kind of experiment: Serum lipid profile. Particulars: 60% fat for 12 weeks; day 4.5 post-coitum. From the text:
FIGS. 22A to 22H show results of tacrolimus restoring normal lipid profile in all treated diabetic and obese mice fed with 60% fat for 12 weeks. Normal serum levels of Triglycerides (FIG. 22A and FIG. 22B), Total Cholesterol (FIG. 22C and FIG. 22D), High-density Lipoprotein (HDL) Cholesterol (FIG. 22E and FIG. 22F) and lipid Ratio representing the overall lipid profile (FIG. 22G and FIG. 22H) were obtained after the administration of tacrolimus to the diabetic and obese mice despite their continued high fat calorie intake. Blood samples were taken at day 4.5 post-coitum and values on the Y-axis are plotted as power of 10.

Experiment [2] relates to NZO mice fed a high fat diet. Kind of experiment: Implantation rate and resorption, comparison of macrolides. The method, then:
For the comparative evaluation of other macrolide drugs to tacrolimus, mice starting at 7 weeks of age were maintained on the high fat diet for a total of 13 weeks of study period. Mice were entered into the experiments when determined to be glucose intolerant as described above. Methods of drug administration and other experimental methods were as described above.
Peri-implantation (E4.5) and post-implantation (E6.5) pregnant and/or pseudopregnant (E4.5bid and E6.5bid) mouse uteri were prepared after mating respectively with fertile and/or vasectomized males as previously described (Herington et al. Endocrinol 2009 150: 4404-4413). The morning of vaginal plug detection was considered as gestational day 0.5 (E0.5 or Gd.0.5). An average number of twenty Concanavalin A(ConA)-coated sepharose beads (average size of 0.1 mm-diameter) (Sigma-Aldrich, Burlington, Ontario, Canada) was injected into the lumen of the left uterine horn of anesthetized animals between hours 13:00 and 16:00 on day 2.5 of pseudopregnancy according to the procedure described by Herington et al. (Endocrinol, 2009 150: 4404-4413). With the use of Ketamine/Xyalzine anesthesia and cardiac puncture, all animals were sacrificed at the age of 16-18 weeks between the morning hours 09:00-11:00. Pregnant and pseudopregnant mice were sacrificed in the morning of days 4.5 and 6.5 of their respective pregnancy. Blood samples were collected from all animals and were let stand for 1 hour at room temperature before isolation of the serum. Serum samples were stored at −80° C. until they were analyzed for their steroid hormones and lipid contents by appropriate laboratory procedures such as radio-immunoassay (RIA) all of which were conducted at the Department of Clinical Chemistry (Kingston General Hospital, Kingston, Ontario, Canada). Ovaries, oviducts and uteri were carefully dissected out of carcasses and were placed in ice-cold phosphate buffered saline (PBS)-containing petri dishes. Under a dissecting microscope, uteri were carefully isolated from their attached uterine tubes, trimmed of all mesenteric fat and were immediately weighed. The numbers of corpora lutea and implantation sites (viable and resorbed) were counted, respectively, from E4.5 and E6.5 pregnant mouse ovaries and uteri. For protein and RNA extraction, virgin uteri and segments of uterine horns containing inter-implantation sites of pregnant and pseudopregnant uteri were transected and snapped frozen in liquid nitrogen.
Examination of external morphological features of uteri of pregnant mice, including counts of implantation sites and photography was performed using a computerized dissecting microscope (Leica Diagnostic Instruments, USA) and the image acquisition and analytic software (SPOT 2.2.0). Percentage of peri-implantation embryo loss was calculated as described by Bindali and Kaliwal (Ind. Health, 2002 40:191-197), using the formula: % Preimplantation loss=[Total number of corpora lutea−Total number of implantation]/Total number of corpora lutea. Immunohistochemical localization and assessment of microscopic morphological features of implantation and inter-implantation sites in normoglycemic and diabetic NOD mice were performed on methacarn (60% methanol, 30% chloroform and 10% acetic acid)-fixed specimens. […]

The subject of experiment [3] is diabetic NOD mice. In words: Weekly non-fasting blood glucose monitoring. As to conditions: FIG. 16A. The method, then:
Through the use of Ultra Glucosemeter (Accu-Chek Aviva/Roche Diagnostic, Laval, Quebec, Canada) blood glucose levels for all mice were monitored via tail venipuncture once a week on a regular basis beginning at the age of 8 weeks. Animals with non-fasting or those having blood glucose values ≧14.9 mmol/L after the glucose challenge (glucose tolerance) test were identified as diabetic. […] The selected mice were 9 weeks old and were treated with 0.1 mg/kg q2d of tacrolimus (Prograf (5 mg/ml), Astellas) subcutaneously administered in 0.2 ml saline for three weeks after which animals were mated to males of the same strain (See FIG. 1). Vehicle (0.2 ml saline, s.q.) treated hyperglycemic NOD female mice were allowed two weeks in diabetes before they were mated to males of the same strain. Facial (mandibular) venous blood samples were collected from treated animals at 24 and 48 hours between injections and at pregnancy days 0.5, 2.5, 4.5, 6.5, 8.5, 10.5, 12.5, 14.5, 16.5 and 18.5 respectively following a standard procedure for facial bleed in mice (Golde et al Lab Anim (NY) 2005 34:39-43).

For the compound `C=CC[C@@H]1/C=C(\C)C[C@H](C)C[C@H](OC)[C@H]2O[C@@](O)(C(=O)C(=O)N3CCCC[C@H]3C(=O)O[C@H](/C(C)=C/[C@@H]3CC[C@@H](O)[C@H](OC)C3)[C@H](C)[C@@H](O)CC1=O)[C@H](C)C[C@@H]2OC` [tacrolimus], the “lipid profile (triglycerides, total cholesterol, HDL cholesterol, lipid ratio)” value in experiment [1] was “restored normal lipid profile”. Besides, the “fertility-enhancing effect compared with the other macrolides” value in experiment [2] (NZO mice, high fat diet) is “greater comparative effects”. The “embryonic and fetal absorption rate” value in experiment [2] (same treatments, vs vehicle, p<0.05) was “significantly reduced embryonic and fetal absorption rate”. For the same compound, the implantation rate result in experiment [2] (tacrolimus 0.05 and 0.1 mg/kg, pimecrolimus 0.1 mg/kg, sirolimus 0.1 mg/kg s.c. every other day for three weeks, vs vehicle) is on record as “significantly improved implantation rate (p<0.05)”. Further, in experiment [3], the “weekly non-fasting blood glucose (glycemic phenotype)” value is recorded as “effective in restoring normal glycemic phenotype”.

These data come from US9427433B2, “Methods and compositions for enhancing fertility and/or inhibiting pregnancy failure and restoring glucose tolerance” (Queen's University at Kingston, priority 2011, dated 2016).
